{"source": "paper PMC12469672", "about": "“Effects on Oral Squamous Carcinoma Cell Lines and Their Mechanisms of Pyrazole N-Aryl Sulfonate: A Novel Class of Selective Cyclooxygenase-2 Inhibitors” (International Journal of Molecular Sciences, 2025)", "key": {"CAL-27 cells [1]": {"tested_on": "CAL-27 cells", "assay": "CCK-8 proliferation assay, CAL-27", "format": "cell-based", "settings": "Homo sapiens", "method": "(§1) The OSCC cell lines CAL-27 (STCC12901P, Servicebio, Wuhan, China) and SAS (CC0706, Cellcook, Guangzhou, China) were cultured in Dulbecco Modified Eagle Medium F12 (DMEM/F12) (G4610-500ML, Servicebio, Wuhan, China) supplemented with 10% fetal bovine serum (FBS) (AB-FBS-DIA1050, ABW, Shanghai, China) and 100 U/mL penicillin-streptomycin-gentamicin solution (G4014-100ML, Servicebio, Wuhan, China). VERO cells were cultured in DMEM (G4524-500ML, Servicebio, Wuhan, China) supplemented with 10% FBS (AB-FBS-DIA1050, ABW, China) and 100 U/mL penicillin–streptomycin–gentamicin solution (G4014-100ML, Servicebio, Wuhan, China). […] were maintained at 37 °C in a humidified 5% CO2 incubator. For experiments, 1 × 10^6 cells were seeded per T-25 culture flask.\n(§2) CAL-27, SAS, and VERO cells were seeded in 96-well plates at a density of 5000 cells per well. At specified time intervals, 10 μL of Cell Counting Kit-8 (CCK-8) reagent (K1018, Apexbio, Boston, MA, USA) was added to each well and incubated for 2 h. Absorbance at 450 nm was measured using a microplate reader (Infinite M200 Pro, Tecan Group, Männedorf, Switzerland)."}, "COX-2 in SAS cells": {"tested_on": "COX-2 in SAS cells", "assay": "ELISA COX-2, SAS", "format": "cell-based", "settings": "working concentrations, vs control (compounds also vs CXB)", "method": "With the aim of determining COX-2 concentrations in OSCC cell lines after treatment at the predefined working concentrations, we used a specialized ELISA kit (F0564-A, FANKEW, Shanghai, China), following the manufacturer’s instructions. Briefly, 40 μL of the sample dilution and 10 μL of the sample (sample final dilution is 5-fold) were added to testing sample wells and incubated for 30 min at 37 °C. After that, discard the liquid and wash the plate using washing buffer. Repeat 5 times, drying by patting. Subsequently, samples were incubated with 50 μL of HRP-conjugate reagent in each well for 30 min at 37 °C. Wash 5 times, then add Chromogen Solution A and B and incubate for 10 min at 37 °C. Lastly, 50 μL of stop solution was added to each well to stop the reaction, and the sample absorbance was measured using a microplate reader at 450 nm after adding stop solution within 15 min."}, "CAL-27 cells [2]": {"tested_on": "CAL-27 cells", "assay": "Annexin V-FITC/PI flow cytometry apoptosis, CAL-27", "format": "cell-based", "settings": "CAL-27, 24 h, vs control", "method": "(§3) After 24 h drug treatment at the predefined working concentrations, CAL-27 and SAS cells were trypsinized, centrifuged (200× g, 5 min, RT), and washed twice with 1 mL ice-cold PBS. Cell aliquots ((5–10) × 10^4 cells) were resuspended in 195 μL Annexin V-FITC binding buffer, followed by sequential addition of 5 μL Annexin V-FITC and 10 μL propidium iodide (PI) (BMS500FI-100, Thermo Fisher Scientific, Wien, Austria) with gentle mixing. After 10–20 min of incubation in darkness (20–25 °C) with intermittent resuspension (2–3 times), samples were placed on ice and analyzed within 1 h using a flow cytometer (CytExpert software [Version 2.4.0.28, Beckman Coulter, Brea, CA, USA]). Triplicate independent experiments were performed for statistical analysis."}, "COX-2 mRNA in SAS cells": {"tested_on": "COX-2 mRNA in SAS cells", "assay": "RT-qPCR COX-2 mRNA, SAS", "format": "cell-based", "settings": "working concentrations, 24 h, vs control", "method": "(§4) Equal amounts of RNA were reverse transcribed into cDNA using the Reverse Transcription Kit (AG11705, Accurate Biology, Guangzhou, China) following the manufacturer’s instructions. Quantitative PCR was performed on a QIAGEN Rotor-GeneQ system (9001862, QIAGEN, Hilden, Germany) with SYBR Green Pro Taq HS Premix II (AG11702, Accurate Biology, China).\n(§5) The PCR protocol consisted of initial denaturation at 95 °C for 30 s, followed by 40 cycles of 95 °C for 5 s and 60 °C for 30 s. All reactions were performed in triplicate, with melting curve analysis confirming amplification specificity. The expression of the target genes was normalized to GAPDH, and fold changes were calculated in the manner of the 2^−ΔΔCT ."}, "SAS cells [3]": {"tested_on": "SAS cells", "assay": "Annexin V-FITC/PI flow cytometry apoptosis, SAS", "format": "cell-based", "settings": "24 h, vs control", "method": "as §3"}, "SAS cells [4]": {"tested_on": "SAS cells", "assay": "Hoechst 33342 staining, SAS", "format": "cell-based", "settings": "24 h, working concentrations, vs NC", "method": "(§6) After 24 h drug treatment at the predefined working concentrations, CAL-27 and SAS cells were dyed with 300 μL Hoechst 33342 staining (C1022, Beyotime, China) in the dark at 37 °C for 10 min. Then, the residual Hoechst 33342 staining was washed 3 times with 1 × phosphate-buffered saline (PBS, G4250-500ML, Servicebio, China). The images were then immediately examined under an inverted fluorescence microscope (CX23, Olympus, Japan)."}, "VERO cells": {"tested_on": "VERO cells", "assay": "CCK-8 cytotoxicity assay, VERO", "format": "cell-based, African green monkey", "settings": "Chlorocebus sabaeus; VERO, CCK-8, 24 h", "method": "as §1, §2"}, "CAL-27 cells [5]": {"tested_on": "CAL-27 cells", "assay": "Hoechst 33342 staining, CAL-27", "format": "cell-based", "settings": "CAL-27, 24 h, working concentrations, vs NC", "method": "as §6"}, "SAS cells [6]": {"tested_on": "SAS cells", "assay": "CCK-8 proliferation assay, SAS", "format": "cell-based", "method": "as §1, §2"}, "MMP2 mRNA in SAS cells": {"tested_on": "MMP2 mRNA in SAS cells", "assay": "RT-qPCR MMP2 mRNA, SAS", "format": "cell-based", "settings": "vs control", "method": "as §4, §5"}, "[7]": {"tested_on": "MMP9 mRNA in CAL-27 cells", "assay": "RT-qPCR MMP9 mRNA, CAL-27", "format": "cell-based", "settings": "CAL-27, 24 h, vs control", "method": "as §4, §5"}, "[8]": {"tested_on": "MMP2 mRNA in CAL-27 cells", "assay": "RT-qPCR MMP2 mRNA, CAL-27", "format": "cell-based", "settings": "CAL-27, 24 h, vs control", "method": "as §4, §5"}}, "note": "Where two headings read alike, the source gives them in different places."}
{"compound": "Cc1ccc(-c2cc(C(F)(F)F)nn2-c2ccc(S(N)(=O)=O)cc2)cc1", "note": "[CXB, celecoxib, reference compound]", "values": [{"measurement": "IC50", "setting": "CAL-27 cells [1]; CAL-27, 24 h, read-out: IC50 (range), CAL-27, CCK-8, 24 h, given as a range", "result": "52.4 to 61.9", "unit": "µM"}, {"measurement": "IC50", "setting": "CAL-27 cells [1]; CAL-27, CAL-27, CCK-8, read-out: IC50 CAL-27", "result": 57, "unit": "µM"}, {"measurement": "COX-2 level (ELISA)", "setting": "COX-2 in SAS cells", "result": "no marked difference"}, {"measurement": "total apoptotic cell population (early and late apoptosis)", "setting": "CAL-27 cells [2]", "result": "comparable pro-apoptotic efficacy"}, {"measurement": "COX-2 mRNA level", "setting": "COX-2 mRNA in SAS cells", "result": "marked upregulation"}, {"measurement": "total apoptotic cell population (early and late apoptosis)", "setting": "SAS cells [3]", "result": "comparable pro-apoptotic efficacy"}, {"measurement": "apoptotic cells (Hoechst 33342, fluorescence microscopy)", "setting": "SAS cells [4]", "result": "significant increase"}, {"measurement": "IC50", "setting": "VERO cells", "result": 243, "unit": "µM"}, {"measurement": "apoptotic cells (Hoechst 33342, fluorescence microscopy)", "setting": "CAL-27 cells [5]", "result": "significant increase"}, {"measurement": "IC50", "setting": "SAS cells [6]; 24 h, read-out: IC50 (range)", "result": "53.9 to 61.5", "unit": "µM"}, {"measurement": "IC50", "setting": "SAS cells [6]; SAS, CCK-8, read-out: IC50 SAS", "result": 57.6, "unit": "µM"}, {"measurement": "MMP2 mRNA expression", "setting": "MMP2 mRNA in SAS cells", "result": "markedly suppressed"}, {"measurement": "MMP9 mRNA expression", "setting": "[7]", "result": "even lower"}, {"measurement": "MMP2 mRNA expression", "setting": "[8]", "result": "even lower"}]}
